Experimental data: US10285983B2, “3-(1H-pyrrolo[2,3-B]pyridin-2-yl)-1H-pyrazolo[3,4-B] pyridines and therapeutic uses thereof” (Samumed, LLC, priority 2015, dated 2019)

System: primary human fibroblasts derived from IPF patients (LL29 cells)
Experiment: Inhibition of fibrotic process, αSMA staining in TGF-β1 treated LL29 fibroblasts
Format: cell-based
Settings: Fibroblast, 96 h, TGF-β1 20 ng/mL, 4 days; for EC50: % αSMA positive cells; for inhibition at 10 µM: given for EC50 >10 μM, read-out: percent inhibition at 10 μM
Text: Representative compounds were screened using primary human fibroblasts (derived from IPF patients) treated with TGF-β1 to determine their ability to inhibit the fibrotic process.
Primary human fibroblasts derived from IPF patients (LL29 cells) [^1Xiaoqiu Liu, et. al., “Fibrotic Lung Fibroblasts Show Blunted Inhibition by cAMP Due to Deficient cAMP Response Element-Binding Protein Phosphorylation”, Journal of Pharmacology and Experimental Therapeutics (2005), 315(2), 678-687; ^2Watts, K. L., et. al., “RhoA signaling modulates cyclin D1 expression in human lung fibroblasts; implications for idiopathic pulmonary fibrosis”, Respiratory Research (2006), 7(1), 88] were obtained from American Type Culture Collection (ATCC) and expanded in F12 medium supplemented with 15% Fetal Bovine Serum and Penicillin/Streptomycin.
Each compound was dissolved in DMSO as a 10 mM stock and used to prepare compound source plates. Serial dilution (1:2, 11-point dose-response curves from […] to […]) and compound transfer was performed using the ECHO 550 (Labcyte, Sunnyvale, Calif.) into 384-well clear bottom assay plates (Greiner Bio-One) with appropriate DMSO backfill for a final DMSO concentration of 0.1%. LL29 cells are plated at 1,500 cells/well in 80 μL/well F12 medium supplemented with 1% Fetal Bovine Serum. One hour after addition of the cells, TGF-β1 (Peprotech; 20 ng/mL) was added to the plates to induce fibrosis (ref. 1 and 2 above). Wells treated with TGF-β1 and containing DMSO were used as controls. Cells were incubated at 37° C. and 5% CO2 for 4 days. Following incubation for 4 days, SYTOX green nucleic acid stain (Life Technologies [Thermo Fisher Scientific]) was added to the wells at a final concentration of 1 μM and incubated at room temperature for 30 min. Cells were then fixed using 4% formaldehyde (Electron Microscopy Sciences), washed 3 times with PBS followed by blocking and permeabilization using 3% Bovine Serum Albumin (BSA; Sigma) and 0.3% Triton X-100 (Sigma) in PBS. Cells were then stained with antibody specific to α-smooth muscle actin (αSMA; Abcam) (ref. 1 and 2 above) in 3% Bovine Serum Albumin (BSA; Sigma) and 0.3% Triton X-100 (Sigma) in PBS, and incubated overnight at 4° C. Cells were then washed 3 times with PBS, followed by incubation with Alexa Flor-647 conjugated secondary antibody (Life Technologies [Thermo Fisher Scientific]) and DAPI at room temperature for 1 hour. Cells were then washed 3 times with PBS and plates were sealed for imaging. αSMA staining was imaged by excitation at 630 nm and emission at 665 nm and quantified using the Compartmental Analysis program on the CellInsight CX5 (Thermo Scientific). Dead or apoptotic cells were excluded from analysis based on positive SYTOX green staining. % of total cells positive for αSMA were counted in each well and normalized to the average of 11 wells treated with TGF-β1 on the same plate using Dotmatics' Studies Software. The normalized averages (fold change over untreated) of 3 replicate wells for each compound concentration were used to create dose-responses curves and EC50 values were calculated using non-linear regression curve fit in the Dotmatics' Studies Software. For EC50 of >10 μM, the percent inhibition at 10 μM is provided.

Row | Compound | EC50 | inhibition at 10 µM
1 | CC(C)(C)CC(=O)Nc1cncc(-c2cnc3[nH]nc(-c4cc5c(-c6ccccc6F)ccnc5[nH]4)c3c2)c1 [Compound 72, N-(5-(3-(4-(2-Fluorophenyl)-1H-pyrrolo[2,3-b]pyridin-2-yl)-1H-pyrazolo [3,4-b]pyridin-5-yl)pyridin-3-yl)-3,3-dimethylbutanamide] | 0.759 µM | 
2 | O=C(Nc1cncc(-c2cnc3[nH]nc(-c4cc5c(-c6ccccc6F)ccnc5[nH]4)c3c2)c1)C1CCCC1 [Compound 78, N-(5-(3-(4-(2-Fluorophenyl)-1H-pyrrolo[2,3-b]pyridin-2-yl)-1H-pyrazolo [3,4-b]pyridin-5-yl)pyridin-3-yl)cyclopentanecarboxamide] | 7.09 µM | 
3 | c1cncc(-c2cnc3[nH]nc(-c4cc5c(-c6cccnc6)ccnc5[nH]4)c3c2)c1 [Compound 88, 5-(Pyridin-3-yl)-3-(4-(pyridin-3-yl)-1H-pyrrolo[2,3-b]pyridin-2-yl)-1H-pyrazolo[3,4-b]pyridine] | > 10 µM | 0%
4 | CC(C)C(=O)Nc1cncc(-c2cnc3[nH]nc(-c4cc5c(-c6cccnc6)ccnc5[nH]4)c3c2)c1 [Compound 93, N-(5-(3-(4-(Pyridin-3-yl)-1H-pyrrolo[2,3-b]pyridin-2-yl)-1H-pyrazolo[3,4-b]pyridin-5-yl)pyridin-3-yl)isobutyramide] | > 10 µM | 42.1%
5 | CC(C)Nc1cncc(-c2cnc3[nH]nc(-c4cc5c(-c6cccnc6)ccnc5[nH]4)c3c2)c1 [Compound 96, N-Isopropyl-5-(3-(4-(pyridin-3-yl)-1H-pyrrolo[2,3-b]pyridin-2-yl)-1H-pyrazolo[3,4-b]pyridin-5-yl)pyridin-3-amine] | 1.56 µM | 
6 | O=C(Nc1cncc(-c2cnc3[nH]nc(-c4cc5c(-c6cccnc6)ccnc5[nH]4)c3c2)c1)C1CC1 [Compound 104, N-(5-(3-(4-(Pyridin-3-yl)-1H-pyrrolo[2,3-b]pyridin-2-yl)-1H-pyrazolo[3,4-b]pyridin-5-yl)pyridin-3-yl)cyclopropanecarboxamide] | > 10 µM | 19.6%
7 | Cc1ccncc1-c1cnc2[nH]nc(-c3cc4c(-c5ccncc5)ccnc4[nH]3)c2c1 [Compound 117, 5-(4-Methylpyridin-3-yl)-3-(4-(pyridin-4-yl)-1H-pyrrolo[2,3-b]pyridin-2-yl)-1H-pyrazolo[3,4-b]pyridine] | > 10 µM | 52.9%
8 | O=C(Nc1cncc(-c2cnc3[nH]nc(-c4cc5c(-c6ccncc6)ccnc5[nH]4)c3c2)c1)c1ccccc1 [Compound 123, N-(5-(3-(4-(Pyridin-4-yl)-1H-pyrrolo[2,3-b]pyridin-2-yl)-1H-pyrazolo[3,4-b]pyridin-5-yl)pyridin-3-yl)benzamide] | > 10 µM | 0%
9 | c1cc(-c2cnc3[nH]nc(-c4cc5c(-c6ccncc6)ccnc5[nH]4)c3c2)ccn1 [Compound 130, 5-(Pyridin-4-yl)-3-(4-(pyridin-4-yl)-1H-pyrrolo[2,3-b]pyridin-2-yl)-1H-pyrazolo[3,4-b]pyridine] | > 10 µM | 20.5%
10 | O=C(Nc1cncc(-c2cnc3[nH]nc(-c4cc5c(-c6ccncc6)ccnc5[nH]4)c3c2)c1)C1CCCCC1 [Compound 135, N-(5-(3-(4-(Pyridin-4-yl)-1H-pyrrolo[2,3-b]pyridin-2-yl)-1H-pyrazolo[3,4-b]pyridin-5-yl)pyridin-3-yl)cyclohexanecarboxamide] | > 10 µM | 19.8%
11 | c1ccc(-c2cnc3[nH]nc(-c4cc5c(-c6ccncc6)ccnc5[nH]4)c3c2)nc1 [Compound 140, 5-(Pyridin-2-yl)-3-(4-(pyridin-4-yl)-1H-pyrrolo[2,3-b]pyridin-2-yl)-1H-pyrazolo[3,4-b]pyridine] | > 10 µM | 24.5%
12 | CC(C)(C)C(=O)Nc1cncc(-c2cnc3[nH]nc(-c4cc5c(N6CCCCC6)ccnc5[nH]4)c3c2)c1 [Compound 176, N-(5-(3-(4-(Piperidin-1-yl)-1H-pyrrolo[2,3-b]pyridin-2-yl)-1H-pyrazolo[3,4-b]pyridin-5-yl)pyridin-3-yl)pivalamide] | > 10 µM | 22.4%
13 | c1cc(N2CCCCC2)c2cc(-c3n[nH]c4ncc(-c5cncc(CN6CCCC6)c5)cc34)[nH]c2n1 [Compound 182, 3-(4-(Piperidin-1-yl)-1H-pyrrolo[2,3-b]pyridin-2-yl)-5-(5-(pyrrolidin-1-ylmethyl)pyridin-3-yl)-1H-pyrazolo[3,4-b]pyridine] | > 10 µM | 21.9%
14 | CCCC(=O)Nc1cncc(-c2cnc3[nH]nc(-c4cc5c(N6CCCCC6)ccnc5[nH]4)c3c2)c1 [Compound 185, N-(5-(3-(4-(Piperidin-1-yl)-1H-pyrrolo[2,3-b]pyridin-2-yl)-1H-pyrazolo[3,4-b]pyridin-5-yl)pyridin-3-yl)butyramide] | > 10 µM | 0%
15 | c1ncc(-c2cnc3[nH]nc(-c4cc5c(N6CCCCC6)ccnc5[nH]4)c3c2)cn1 [Compound 195, 3-(4-(Piperidin-1-yl)-1H-pyrrolo[2,3-b]pyridin-2-yl)-5-(pyrimidin-5-yl)-1H-pyrazolo[3,4-b]pyridine] | 4.38 µM | 
16 | CN1CCN(c2ccnc3[nH]c(-c4n[nH]c5ncc(-c6cncc(NC(=O)C7CCCCC7)c6)cc45)cc23)CC1 [Compound 247, N-(5-(3-(4-(4-Methylpiperazin-1-yl)-1H-pyrrolo[2,3-b]pyridin-2-yl)-1H-pyrazolo[3,4-b]pyridin-5-yl)pyridin-3-yl)cyclohexanecarboxamide] | 5.03 µM | 
17 | c1cnc2[nH]c(-c3n[nH]c4ncc(-c5ccncc5)cc34)cc2c1 [Compound 270, 5-(Pyridin-4-yl)-3-(1H-pyrrolo[2,3-b]pyridin-2-yl)-1H-pyrazolo[3,4-b]pyridine] | > 10 µM | 55.6%
18 | O=C(Nc1cncc(-c2cnc3[nH]nc(-c4cc5cccnc5[nH]4)c3c2)c1)C1CCCC1 [Compound 274, N-(5-(3-(1H-Pyrrolo[2,3-b]pyridin-2-yl)-1H-pyrazolo[3,4-b]pyridin-5-yl)pyridin-3-yl)cyclopentanecarboxamide] | 0.76 µM | 
19 | CC(C)(C)CC(=O)Nc1cncc(-c2cnc3[nH]nc(-c4cc5c(-c6ccoc6)ccnc5[nH]4)c3c2)c1 [Compound 324, N-(5-(3-(4-(Furan-3-yl)-1H-pyrrolo[2,3-b]pyridin-2-yl)-1H-pyrazolo[3,4-b]pyridin-5-yl)pyridin-3-yl)-3,3-dimethylbutanamide] | > 10 µM | 0%
20 | CN(C)c1cncc(-c2cnc3[nH]nc(-c4cc5c(-c6cccs6)ccnc5[nH]4)c3c2)c1 [Compound 343, N,N-Dimethyl-5-(3-(4-(thiophen-2-yl)-1H-pyrrolo[2,3-b]pyridin-2-yl)-1H-pyrazolo[3,4-b]pyridin-5-yl)pyridin-3-amine] | 1.75 µM | 
21 | O=C(Nc1cncc(-c2cnc3[nH]nc(-c4cc5c(-c6cccs6)ccnc5[nH]4)c3c2)c1)C1CC1 [Compound 356, N-(5-(3-(4-(Thiophen-2-yl)-1H-pyrrolo[2,3-b]pyridin-2-yl)-1H-pyrazolo[3,4-b]pyridin-5-yl)pyridin-3-yl)cyclopropanecarboxamide] | > 10 µM | 0%
22 | CN(C)CCNc1cc(F)cc(-c2ccnc3[nH]c(-c4n[nH]c5ncc(-c6cncc(NC(=O)C(C)(C)C)c6)cc45)cc23)c1 [Compound 456, N-(5-(3-(4-(3-((2-(Dimethylamino)ethyl)amino)-5-fluorophenyl)-1H-pyrrolo [2,3-b]pyridin-2-yl)-1H-pyrazolo[3,4-b]pyridin-5-yl)pyridin-3-yl)pivalamide] | > 10 µM | 0%
23 | CN(C)CCNc1cc(F)cc(-c2ccnc3[nH]c(-c4n[nH]c5ncc(-c6cncc(NC(=O)C7CCC7)c6)cc45)cc23)c1 [Compound 469, N-(5-(3-(4-(3-((2-(Dimethylamino)ethyl)amino)-5-fluorophenyl)-1H-pyrrolo [2,3-b]pyridin-2-yl)-1H-pyrazolo[3,4-b]pyridin-5-yl)pyridin-3-yl)cyclobutanecarboxamide] | > 10 µM | 0%
